Measured values reported in US20110046217A1, “USE OF 2,2'-CYCLOLIGNANS FOR INDUCING, RESTORING OR STIMULATING THE PIGMENTATION OF THE SKIN, HAIR OR HAIRS” (priority 2007, published 2011).
Values joined by “and” are separate entries in the source; they are usually repeats but may differ in a detail not shown here. Equal entries are not always repeated.

Experiments:
[1] = system: Caucasian primary melanocytes; experiment: Melanin produced in normal human melanocytes; assay type: cell-based; details: 30 μM, 4 days, in the presence of L-dopa (50 μM), vs control
Method: The study was carried out on Caucasian primary melanocytes during culturing. The test and reference formulations were applied in the presence of L-dopa which is the substrate of tyrosinase (50 μM) (Sigma, D9628-5G) for 4 days, the culture medium having been renewed after 2 days. The product GPN000715 was applied at three different concentrations: 10 μM, 30 μM and 80 μM. An application of 100 nM of the reference element (MSH) was carried out, and also an application of 0.1 mM of arbutin. The untreated control cells (CTL) stayed in the culture medium.
The melanocytes were seeded in 6-well plates at a cell density of +/−100 000 cells. One week after seeding the cells, the test and reference products were applied, in the presence of L-dopa. After 4 days of treatment, cell lysis was carried out using a solution of NaOH (1N) (Merck, 109956) over 24 hours, at 37° C. The cell lysates were then centrifuged for 10 minutes, then 120 μl of each lysate was transferred into a 96-well plate in order to read the absorbance at 450 nm. The melanin content of each sample was quantified by comparison with the absorbances from the standard curve made with synthetic melanin (Sigma, M8631-100MG), ranging from 0 to 100 μg/ml.
FIG. 1 represents a quantification of the production of melanin by melanocytes, in a single layer, after 4 days of application in the presence of the test and reference elements. […]

[2] = system: keratinocytes; experiment: Phagocytic activity of the keratinocytes; assay type: cell-based
[3] = system: follicle (hair bulb); experiment: Pigmentation and survival of the hair follicle
[4] = system: melanocyte; experiment: Formation of a dense dendritic network in the melanocyte; assay type: cell-based
[5] = system: B16 melanocytes; experiment: Melanin assay, synthesis of melanin by B16 melanocytes; assay type: cell-based; details: for melanin production in the melanocyte cultures: treated at non-toxic doses
Method: The melanogenesis-stimulating effect of gomisin A was measured on B16 melanocyte cultures.
For gomisin A, the following were determined: • after culturing for 10 days under standard conditions, in 24-well plates, in Promocell medium free of “phorbol myristate acetate” (PMA):
the amount of melanin present in the cultures, by spectrophotometric measurement of the melanin produced, after alkaline extraction, relative to 100% of the control (the control corresponds to the test performed without test compound).
The melanogenesis-stimulating effect of gomisin C was measured on B16 melanocyte cultures.
For gomisin C, the following were determined: • after culturing for 10 days under standard conditions, in 24-well plates, in Promocell medium free of “phorbol myristate acetate” (PMA): […]

[6] = system: B16 melanocytes; experiment: MTT test and morphological observations, viability of B16 melanocytes; assay type: cell-based; details: for MTT (%): Table 2, plate 1; for MTT test, average / MTT test, single reading / viability (%): 72 h contact; for % cell viability: Table 4

COc1cc2c(c(OC)c1OC)-c1c(cc3c(c1OC)OCO3)C[C@H](C)[C@](C)(O)C2 [Gomisin A, gomisin A]
increase of the amount of melanin in normal human melanocytes [1]: ~40%
phagocytic activity of the keratinocytes [2]: stimulating
degeneration and survival of the follicle [3]: limits degeneration and increases the survival of the follicle
pigmentation of the follicle (hair bulb) [3]: substantially stimulates the pigmentation of the follicle
formation of a dense dendritic network in the melanocyte [4]: stimulating
Melanin ([5]; Table 2, plate 1, 0.0022 mg/ml): 16.62 µg/mL
Melanin % Control ([5]; Table 2, plate 1, 0.0022 mg/ml): 121%
Melanin ([5]; Table 2, plate 1, 0.0067 mg/ml): 22.66 µg/mL
Melanin % Control ([5]; Table 2, plate 1, 0.0067 mg/ml): 164%
Melanin ([5]; Table 2, plate 1, 0.02 mg/ml): 27.73 µg/mL
Melanin % Control ([5]; Table 2, plate 1, 0.02 mg/ml): 201%
melanin production in the melanocyte cultures [5]: significant increase in melanin production
MTT (%) ([6]; 0.0022 mg/ml): 102%
MTT (%) ([6]; 0.0067 mg/ml): 99%
MTT (%) ([6]; 0.02 mg/ml): 102%
MTT test, average ([6]; gomisin A 0.002 mg/ml): 2.001
MTT test, single reading ([6]; gomisin A 0.002 mg/ml): 2.022 and 2.112 and 2.077 and 1.920 and 1.933 and 1.942
viability (%) ([6]; gomisin A 0.002 mg/ml): 105%
MTT test, average ([6]; gomisin A 0.007 mg/ml): 2.081
MTT test, single reading ([6]; gomisin A 0.007 mg/ml): 2.046 and 2.137 and 2.227 and 2.061 and 1.966
viability (%) ([6]; gomisin A 0.007 mg/ml): 109%
MTT test, average ([6]; gomisin A 0.02 mg/ml): 2.128
MTT test, single reading ([6]; gomisin A 0.02 mg/ml): 2.227 and 2.046 and 2.241 and 1.988 and 2.085 and 2.182
viability (%) ([6]; gomisin A 0.02 mg/ml): 112%
MTT test, average ([6]; gomisin A 2E−04 mg/ml): 1.850
MTT test, single reading ([6]; gomisin A 2E−04 mg/ml): 1.878 and 1.932 and 1.972 and 1.721 and 1.807 and 1.787
viability (%) ([6]; gomisin A 2E−04 mg/ml): 97%
MTT test, average ([6]; gomisin A 3E−05 mg/ml): 1.835
MTT test, single reading ([6]; gomisin A 3E−05 mg/ml): 1.961 and 1.784 and 1.853 and 1.764 and 1.910 and 1.740
viability (%) ([6]; gomisin A 3E−05 mg/ml): 96%
MTT test, average ([6]; gomisin A 7E−04 mg/ml): 1.974
MTT test, single reading ([6]; gomisin A 7E−04 mg/ml): 1.976 and 1.996 and 2.147 and 1.844 and 1.896 and 1.987
viability (%) ([6]; gomisin A 7E−04 mg/ml): 104%
MTT test, average ([6]; gomisin A 8E−05 mg/ml): 1.886
MTT test, single reading ([6]; gomisin A 8E−05 mg/ml): 1.964 and 1.891 and 1.965 and 1.899 and 1.829 and 1.770
viability (%) ([6]; gomisin A 8E−05 mg/ml): 99%
MTT test, average ([6]; gomisin A 9.1E−06 mg/ml): 1.910
MTT test, single reading ([6]; gomisin A 9.1E−06 mg/ml): 1.837 and 1.963 and 1.930 and 1.951 and 1.879 and 1.901
viability (%) ([6]; gomisin A 9.1E−06 mg/ml): 100%

COc1cc2c(c(OC)c1OC)-c1c(cc3c(c1OC)OCO3)C[C@H](C)[C@](C)(O)[C@H]2OC(=O)c1ccccc1 [Gomisin C, gomisin C]
Melanin ([5]; Table 4, 0.4 μg/ml): 16.66 µg/mL
Melanin % Control ([5]; Table 4, 0.4 μg/ml): 103%
Melanin ([5]; Table 4, 2 μg/ml): 17.46 µg/mL
Melanin % Control ([5]; Table 4, 2 μg/ml): 108%
Melanin ([5]; Table 4, 8 μg/ml): 19.44 µg/mL
Melanin % Control ([5]; Table 4, 8 μg/ml): 121%
melanin production in the melanocyte cultures [5]: significant increase in melanin production
% cell viability ([6]; 0.4 μg/ml): 102%
% cell viability ([6]; 2 μg/ml): 97%
% cell viability ([6]; 8 μg/ml): 101%
MTT test, average ([6]; gomisin C 0.0002 %): 2.783
MTT test, single reading ([6]; gomisin C 0.0002 %): 2.786 and 2.783 and 2.780
viability (%) ([6]; gomisin C 0.0002 %): 101%
MTT test, average ([6]; gomisin C 0.0008 %): 2.844
MTT test, single reading ([6]; gomisin C 0.0008 %): 2.834 and 2.824 and 2.873
viability (%) ([6]; gomisin C 0.0008 %): 103%
MTT test, average ([6]; gomisin C 0.004 %): 1.899
MTT test, single reading ([6]; gomisin C 0.004 %): 1.871 and 1.873 and 1.954
viability (%) ([6]; gomisin C 0.004 %): 69%
MTT test, average ([6]; gomisin C 0.02 %): 1.136
MTT test, single reading ([6]; gomisin C 0.02 %): 1.208 and 1.146 and 1.205
viability (%) ([6]; gomisin C 0.02 %): 43%
MTT test, average ([6]; gomisin C 1E−06 %): 2.811
MTT test, single reading ([6]; gomisin C 1E−06 %): 2.793 and 2.813 and 2.827
viability (%) ([6]; gomisin C 1E−06 %): 102%
MTT test, average ([6]; gomisin C 2.56E−07 %): 2.790
MTT test, single reading ([6]; gomisin C 2.56E−07 %): 2.786 and 2.781 and 2.804
viability (%) ([6]; gomisin C 2.56E−07 %): 101%
MTT test, average ([6]; gomisin C 3E−05 %): 2.801
MTT test, single reading ([6]; gomisin C 3E−05 %): 2.789 and 2.795 and 2.818
viability (%) ([6]; gomisin C 3E−05 %): 101%
MTT test, average ([6]; gomisin C 6E−06 %): 2.792
MTT test, single reading ([6]; gomisin C 6E−06 %): 2.778 and 2.796 and 2.801
viability (%) ([6]; gomisin C 6E−06 %): 101%

CC(C)Cn1c(=O)n(C)c(=O)c2[nH]cnc21 [IBMX, reference compound]
Melanin ([5]; Table 2, plate 1, 200 μM): 173.77 µg/mL
Melanin % Control ([5]; Table 2, plate 1, 200 μM): 1261%
Melanin ([5]; Table 4, 8 μM): 18.88 µg/mL
Melanin % Control ([5]; Table 4, 8 μM): 117%
Melanin ([5]; Table 4, 40 μM): 25.91 µg/mL
Melanin % Control ([5]; Table 4, 40 μM): 161%
Melanin ([5]; Table 4, 200 μM): 90.45 µg/mL
Melanin % Control ([5]; Table 4, 200 μM): 561%
MTT (%) ([6]; 200 μM): 99%
% cell viability ([6]; 8 μM): 96%
% cell viability ([6]; 40 μM): 94%
% cell viability ([6]; 200 μM): 99%
